We go through five compounds from DBAASP.

Values after ≈ are worked out from the molar mass of the structure shown. Values joined by “and” are separate entries in the source; they are usually repeats but may differ in a detail not shown here. Equal entries are not always repeated. Bounds are passed on as bounds.

A word on the MIC: it is the lowest concentration that inhibits growth of the organism. Low values mean greater potency, high ones weaker potency.

Common to all, as to test: ≥ marks a high value that may be exact or a test limit, other limits are often not marked, values filed in µg/mL are converted to µM
The test system of test [1] is Cronobacter muytjensii ATCC 51329.
Test [2] relates to Cronobacter sakazakii ATCC BAA-894.
In test [3] the test system is Cronobacter sakazakii DPC 6440.
For test [4], the system named is Cronobacter sakazakii DSM 4485.
For test [5], the system named is Escherichia coli NCIMB 11843.
For test [6], the system named is Klebsiella pneumoniae NCIMB 13218.
Test [7] deals with Pseudomonas fluorescens NCIMB 9046.
The test system of test [8] is Salmonella enterica subsp. enterica serovar Typhimurium LT2.
The test system of test [9] is Staphylococcus aureus NCTC 8325-4.
Test [10] deals with Staphylococcus aureus Newman.
The test system of test [11] is Staphylococcus aureus RF122.
For test [12], the system named is Staphylococcus aureus RN4220.
Test [13] relates to Staphylococcus aureus SA113.
In test [14] the test system is Acinetobacter baumannii ATCC 17978.
Test [15] has as its system Enterococcus faecalis ATCC 19433.
In test [16] the test system is Escherichia coli ATCC 25922.
For test [17], the system named is Escherichia coli NCTC 12923.
The subject of test [18] is Klebsiella pneumoniae ATCC 13883.
Test [19] concerns Klebsiella pneumoniae NCTC 13368.
Test [20] relates to Pseudomonas aeruginosa ATCC 27853.
Test [21] relates to Pseudomonas aeruginosa ATCC 9027.
Test [22] relates to Pseudomonas aeruginosa ATCC BAA-2114.
The subject of test [23] is Pseudomonas aeruginosa PAO1.
Test [24] deals with Salmonella enterica subsp. enterica serovar Choleraesuis ATCC 10708.
Test [25] concerns Staphylococcus aureus ATCC 29213.
For test [26], the system named is Staphylococcus aureus ATCC 33591.
Test [27] has as its system Staphylococcus aureus ATCC 43300.
Test [28] deals with Staphylococcus aureus ATCC 9144.
Test [29] relates to Staphylococcus aureus USA 300.
The subject of test [30] is Staphylococcus epidermidis ATCC 12228.
A further test deals with Bacillus subtilis PS832.
Another test has as its system Escherichia coli DL7.
Test [31] deals with Klebsiella aerogenes ATCC 13048.
Test [32] deals with Pseudomonas aeruginosa ATCC 10419.
Test [33] concerns Pseudomonas aeruginosa ATCC 21625.
For test [34], the system named is Pseudomonas aeruginosa ATCC 21630.
The subject of test [35] is Pseudomonas aeruginosa LCCE.
Test [36] deals with Pseudomonas aeruginosa LCCI.
The subject of test [37] is Pseudomonas aeruginosa LCGE.
Test [38] concerns Pseudomonas aeruginosa LC.
The subject of test [39] is Salmonella enterica subsp. enterica serovar Typhimurium C77-31.
The subject of test [40] is Bacillus anthracis Sterne 34F2.
Test [41] concerns Bacillus subtilis ATCC 9372.
Test [42] has as its system Burkholderia thailandensis.

As to `CC(C)C[C@H](NC(=O)CNC(=O)[C@H](CCC(N)=O)NC(=O)[C@H](Cc1cnc[nH]1)NC(=O)[C@H](CCCCN)NC(=O)[C@H](C)N)C(=O)N1CCC[C@H]1C(=O)N[C@@H](CCC(N)=O)C(=O)N[C@@H](CCC(=O)O)C(=O)O` [AKHQGLPQE], the MIC in test [1] was no less than 1250 µM; in test [2] it was no less than 1250 µM; in [3], no less than 1250 µM; in test [4], no less than 1250 µM; in test [5] it was no less than 2500 µM; in [6] it was no less than 2500 µM. The MIC in test [7] was no less than 2500 µM; in [8], no less than 2500 µM; in test [9] it was no less than 1250 µM; in test [10] it was no less than 2500 µM; in test [11], no less than 2500 µM; in [12] it was no less than 2500 µM. In addition, the MIC in test [13] was no less than 2500 µM.

As for `CC[C@H](C)[C@H](NC(=O)[C@H](C)NC(=O)[C@H](CCCCN)NC(=O)[C@@H]1CCCN1C(=O)[C@@H](NC(=O)[C@H](CC(C)C)NC(=O)[C@H](CCCCN)NC(=O)[C@H](Cc1ccccc1)NC(=O)[C@H](CC(C)C)NC(=O)[C@@H](N)Cc1ccccc1)[C@@H](C)CC)C(=O)N[C@@H](CCCCN)C(=O)N[C@@H](CCCCN)C(=O)N[C@@H](CC(C)C)C(=O)N[C@H](C(=O)N[C@@H](CO)C(=O)N[C@@H](CCCCN)C(=O)N[C@@H](Cc1ccccc1)C(=O)N[C@@H](CCCCN)C(=O)O)[C@@H](C)CC` [FLFKLIPKAIKKLISKFK], the minimum inhibitory concentration (MIC) in test [14] was 1.85 µM (≈ 4 µg/mL); in [15], 5 µM (≈ 10.8 µg/mL); in test [16], 7.5 µM (≈ 16.2 µg/mL); in test [17], 1.85 µM (≈ 4 µg/mL); in [18], 5 µM (≈ 10.8 µg/mL); in test [19], 7.4 µM (≈ 16 µg/mL). The MIC is 35 µM (≈ 75.7 µg/mL) in [20]; 5 µM (≈ 10.8 µg/mL) in [21]; no less than 35 µM in test [22]; 14.8 µM (≈ 32 µg/mL) in test [23]; 7.5 µM (≈ 16.2 µg/mL) in [24]; 5 µM and 3 µM in test [25]. Moreover, the MIC in test [26] was 5 µM and 3 µM; in [27] it was 5 µM (≈ 10.8 µg/mL); in test [28], 1.85 µM (≈ 4 µg/mL); in test [29], 3.7 µM (≈ 8 µg/mL); in [30], 5 µM (≈ 10.8 µg/mL).

For the compound `CC(C)C[C@H](NC(=O)CNC(=O)[C@H](C)NC(=O)[C@H](CCCN=C(N)N)NC(=O)[C@H](Cc1cnc[nH]1)NC(=O)CNC(=O)CN)C(=O)N[C@@H](CCC(N)=O)C(=O)N[C@@H](Cc1ccccc1)C(=O)N1CCC[C@H]1C(=O)N[C@H](C(=O)NCC(=O)N[C@@H](CCCN=C(N)N)C(=O)N[C@H](C(=O)N[C@@H](Cc1cnc[nH]1)C(=O)N[C@@H](CCCN=C(N)N)C(=O)N[C@@H](CC(C)C)C(=O)N[C@@H](CC(C)C)C(=O)N[C@@H](CCCN=C(N)N)C(=O)N[C@@H](CCCCN)C(N)=O)C(C)C)C(C)C` [GGHRAGLQFPVGRVHRLLRK], the MIC was 4 µM (≈ 9.01 µg/mL) with Bacillus subtilis PS832; 16 µM and 8 µM in the test with Escherichia coli DL7; no less than 32 µM in test [31]; 16 µM (≈ 36.1 µg/mL) in test [30].

As for `CC[C@H](C)[C@H](NC(=O)[C@H](CCCCN)NC(=O)[C@H](CCCCN)NC(=O)[C@H](CC(C)C)NC(=O)[C@H](CCCN=C(N)N)NC(=O)[C@H](CCCCN)NC(=O)[C@H](CCCN=C(N)N)NC(=O)[C@H](Cc1ccccc1)NC(=O)[C@H](CCCCN)NC(=O)[C@H](CCCCN)NC(=O)[C@H](CCCN=C(N)N)NC(=O)[C@H](CC(C)C)NC(=O)[C@H](CCCN=C(N)N)NC(=O)[C@H](CCCN=C(N)N)NC(=O)[C@H](Cc1ccccc1)NC(=O)[C@@H](N)CCCN=C(N)N)C(N)=O` [RFRRLRKKFRKRLKKI], the MIC was 64 µM (≈ 143 µg/mL) in [16]; no less than 256 µM in test [32]; no less than 256 µM in test [33]; no less than 256 µM in test [34]; 256 µM (≈ 571 µg/mL) in [20]; no less than 256 µM in [35]. In addition, the MIC in test [36] is no less than 256 µM; in test [37] it was no less than 256 µM; in test [38], no less than 64 µM; in [39] it was no less than 128 µM; in [25], 128 µM (≈ 285 µg/mL); in [30] it was 32 µM (≈ 71.3 µg/mL).

`CSCC[C@H](NC(=O)[C@H](CO)NC(=O)[C@H](Cc1ccc(O)cc1)NC(=O)[C@H](CO)NC(C)=O)C(=O)N[C@@H](CCC(=O)O)C(=O)N[C@@H](Cc1cnc[nH]1)C(=O)N[C@@H](Cc1ccccc1)C(=O)N[C@@H](CCCN=C(N)N)C(=O)N[C@@H](Cc1c[nH]c2ccccc12)C(=O)NCC(=O)N[C@@H](CCCCN)C(=O)N1CCC[C@H]1C(=O)N[C@H](C(N)=O)C(C)C` [SYSMEHFRWGKPV]: the MIC in test [40] is no less than 100 µM; in [41], no less than 100 µM; in test [42], no less than 50 µM.
